# Key:
# johnsongrass = test: Test C pre-/postemergence herbicide test; type: in vivo, Sorghum halepense; conditions: preemergence
# Summary of the method: (§1)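 Emerged plants at the 1- to 4-leaf stage (2–18 cm), or freshly planted seeds, received test chemicals in a non-phytotoxic solvent mixture with surfactant. Response was visually scored against controls after 12 to 14 days in the greenhouse, on a 0 (no effect) to 100 (complete control) scale.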
# barnyardgrass = test: Test C flooded paddy test; type: in vivo, Echinochloa crus-galli; conditions: for Plant response rating, Barnyardgrass: 500 g ai/ha, visual rating after 12 to 14 days
# Summary of the method: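 Injury scored visually against controls on a 0 (no effect) to 100 (complete control) scale, 12 to 14 days after treatment in greenhouse. Flooded paddy plants treated at 2-leaf stage; postemergence plants at 1- to 4-leaf stage, 2 to 18 cm tall.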
# morningglory = test: Test C pre-/postemergence herbicide test; type: in vivo, Ipomoea coccinea; set-up: key to Plant response rating, Morningglory: 0 = no effect, 100 = complete control; conditions: preemergence
# Summary of the method: as §1
# yellow nutsedge = test: Test C pre-/postemergence herbicide test; type: in vivo, Cyperus esculentus; conditions: preemergence
# Summary of the method: as §1
# Surinam grass = test: Test B pre-/postemergence herbicide test; type: in vivo, Urochloa decumbens; conditions: for Surinam Grass plant response rating: postemergence
# Summary of the method: (§2)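 Pre: seeds sown, then sprayed. Post: 1–4-leaf plants (2–18 cm) sprayed at the same time. Paddy: flooded, treated at 2-leaf stage. Formulation: non-phytotoxic solvent with surfactant. Greenhouse 13–15 days; visual 0–100 score relative to controls.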
# large crabgrass [1] = test: Test C pre-/postemergence herbicide test; type: in vivo, Digitaria sanguinalis; conditions: preemergence
# Summary of the method: as §1
# rice = test: Test B pre-/postemergence herbicide test; type: in vivo, Oryza sativa; conditions: preemergence
# Summary of the method: as §2
# eastern black nightshade = test: Test C pre-/postemergence herbicide test; type: in vivo, Solanum ptycanthum; conditions: preemergence
# Summary of the method: as §1
# cocklebur = test: Test C pre-/postemergence herbicide test; type: in vivo, Xanthium strumarium; conditions: for Cocklebur plant response rating: Preemergence, 500 g ai/ha, scale 0 to 100, 0 no effect, 100 complete control
# Summary of the method: as §1
# large crabgrass [2] = test: Test B pre-/postemergence herbicide test; type: in vivo, Digitaria sanguinalis; conditions: for Crabgrass, Large plant response rating: postemergence
# Summary of the method: as §2
# [3] = 125 g ai/ha, scale 0 (no effect) to 100 (complete control), visual, 12 to 14 days
# [4] = 500 g ai/ha, scale 0 to 100 (0 no effect, 100 complete control), visual, 12 to 14 days
# [5] = 62 g ai/ha, scale 0 to 100 (0 no effect, 100 complete control)
# [6] = 125 g ai/ha, scale 0 to 100 (0 no effect, 100 complete control)
# [7] = 250 g ai/ha, scale of 0 to 100, 0 is no effect, 100 is complete control
# [8] = scale 0 to 100 (0 no effect, 100 complete control)
# [9] = 125 g ai/ha, 0 = no effect, 100 = complete control, preemergence
# [10] = 500 g ai/ha, visual rating, 0 = no effect, 100 = complete control, preemergence
# [11] = 125 g ai/ha, visual rating, scale 0 (no effect) to 100 (complete control)
# [12] = 500 g ai/ha, scale 0 to 100, 0 is no effect, 100 is complete control
# [13] = 125 g ai/ha, 0 = no effect, 100 = complete control
# [14] = 500 g ai/ha, visual rating, 0 = no effect, 100 = complete control
# [15] = 62 g ai/ha, preemergence, scale 0 to 100
# [16] = 125 g ai/ha, scale 0 (no effect) to 100 (complete control), visual, 12 to 14 days, preemergence
# [17] = 250 g ai/ha, scale 0-100, preemergence
# [18] = 500 g ai/ha, visual rating 0-100, 0 no effect, 100 complete control, preemergence
# [19] = Postemergence, 500 g ai/ha, visual rating after 13 to 15 days, scale 0 (no effect) to 100 (complete control)
# [20] = preemergence, 125 g ai/ha, 0 to 100 scale, 0 is no effect, 100 is complete control
smiles,measurement,setting,value
CCn1nc(C(C)(C)C)cc1C(=O)Nc1cc(C(=O)N(C)OC)ccc1F [Compound 244],"Plant response rating, Johnsongrass","johnsongrass; 62 g ai/ha, scale 0 to 100",60
same,"Plant response rating, Johnsongrass",johnsongrass; [3],95
same,"Plant response rating, Johnsongrass","johnsongrass; 250 g ai/ha, scale 0-100",95
same,"Plant response rating, Johnsongrass",johnsongrass; [4],100
same,Barnyardgrass plant response rating,barnyardgrass; [5],0
same,Barnyardgrass plant response rating,barnyardgrass; [6],70
same,Barnyardgrass plant response rating,barnyardgrass; [7],75
same,"Plant response rating, Barnyardgrass",barnyardgrass; [8],80
same,"Plant response rating, Morningglory","morningglory; 62 g ai/ha, scale 0 to 100",0
same,"Plant response rating, Morningglory",morningglory; [3],15
same,"Plant response rating, Morningglory","morningglory; 250 g ai/ha, scale 0-100",20
same,"Plant response rating, Morningglory",morningglory; [4],55
same,"Plant response rating, Nutsedge, Yellow","yellow nutsedge; 62 g ai/ha, scale 0 to 100",0
same,"Plant response rating, Nutsedge, Yellow",yellow nutsedge; [3],0
same,"Plant response rating, Nutsedge, Yellow","yellow nutsedge; 250 g ai/ha, scale 0-100",0
same,"Plant response rating, Nutsedge, Yellow",yellow nutsedge; [4],0
same,Surinam Grass plant response rating (0 to 100 scale),Surinam grass; [9],70
same,"Plant response rating, Surinam Grass",Surinam grass; [10],90
same,Surinam Grass plant response rating,Surinam grass; [11],20
same,Surinam Grass plant response rating,Surinam grass; [12],30
same,"Plant response rating, Crabgrass, Large","large crabgrass [1]; 62 g ai/ha, scale 0 to 100",100
same,"Plant response rating, Crabgrass, Large",large crabgrass [1]; [3],100
same,"Plant response rating, Crabgrass, Large","large crabgrass [1]; 250 g ai/ha, scale 0-100",100
same,"Plant response rating, Crabgrass, Large",large crabgrass [1]; [4],100
same,Rice plant response rating (0 to 100 scale),rice; [13],60
same,"Plant response rating, Rice",rice; [14],80
same,"Plant response rating, Nightshade","eastern black nightshade; 62 g ai/ha, scale 0 to 100",100
same,"Plant response rating, Nightshade",eastern black nightshade; [3],100
same,"Plant response rating, Nightshade","eastern black nightshade; 250 g ai/ha, scale 0-100",100
same,"Plant response rating, Nightshade",eastern black nightshade; [4],100
same,"Plant response rating, Cocklebur",cocklebur; [15],0
same,"Plant response rating, Cocklebur",cocklebur; [16],0
same,"Plant response rating, Cocklebur",cocklebur; [17],0
same,Cocklebur plant response rating,cocklebur,0
same,"Crabgrass, Large plant response rating (0 to 100 scale)",large crabgrass [2]; [9],90
same,"Plant response rating, Crabgrass, Large",large crabgrass [2]; [10],100
same,"Crabgrass, Large plant response rating",large crabgrass [2]; [11],10
same,"Crabgrass, Large plant response rating",large crabgrass [2]; [12],30
CCOC(=O)c1cc(NC(=O)c2cc(C(C)(C)C)nn2CC)ccc1OCC [Compound 95],"Plant response rating, Johnsongrass","johnsongrass; 31 g ai/ha, scale 0 to 100",0
same,"Plant response rating (0 = no effect, 100 = complete control), Johnsongrass",johnsongrass; 62 g ai/ha,0
same,"Plant response rating, Johnsongrass",johnsongrass; [3],40
same,Barnyardgrass plant response rating,barnyardgrass; [5],20
same,Barnyardgrass plant response rating,"barnyardgrass; 125 g ai/ha, scale of 0 to 100, 0 is no effect, 100 is complete control",45
same,Barnyardgrass plant response rating,barnyardgrass; [7],55
same,"Plant response rating, Barnyardgrass",barnyardgrass; [8],60
same,"Plant response rating, Morningglory","morningglory; 31 g ai/ha, scale 0 to 100",0
same,"Plant response rating (0 = no effect, 100 = complete control), Morningglory",morningglory; 62 g ai/ha,5
same,"Plant response rating, Morningglory",morningglory; [3],10
same,"Plant response rating, Nutsedge, Yellow","yellow nutsedge; 31 g ai/ha, scale 0 to 100",0
same,"Plant response rating (0 = no effect, 100 = complete control), Nutsedge, Yellow",yellow nutsedge; 62 g ai/ha,0
same,"Plant response rating, Nutsedge, Yellow",yellow nutsedge; [3],0
same,"Plant response rating, Surinam Grass",Surinam grass; [18],70
same,"Plant response rating, Surinam Grass",Surinam grass; [19],20
same,Surinam Grass plant response rating,Surinam grass; [11],20
same,"Plant response rating, Surinam Grass",Surinam grass; [20],20
same,"Plant response rating, Crabgrass, Large","large crabgrass [1]; 31 g ai/ha, scale 0 to 100",10
same,"Plant response rating (0 = no effect, 100 = complete control), Crabgrass, Large",large crabgrass [1]; 62 g ai/ha,80
same,"Plant response rating, Crabgrass, Large",large crabgrass [1]; [3],100
same,"Plant response rating, Crabgrass, Large","large crabgrass [1]; 250 g ai/ha, scale 0 to 100 (0 no effect, 100 complete control), visual, 12 to 14 days",100
same,"Plant response rating, Rice","rice; 500 g ai/ha, visual rating 0-100, 0 no effect, 100 complete control",50
same,"Plant response rating, Rice","rice; 125 g ai/ha, 0 to 100 scale, 0 is no effect, 100 is complete control",30
same,"Plant response rating, Nightshade","eastern black nightshade; 31 g ai/ha, scale 0 to 100",90
same,"Plant response rating (0 = no effect, 100 = complete control), Nightshade",eastern black nightshade; 62 g ai/ha,95
same,"Plant response rating, Nightshade",eastern black nightshade; [3],95
same,"Plant response rating, Cocklebur","cocklebur; 31 g ai/ha, preemergence, scale 0 to 100",0
same,"Plant response rating (0 = no effect, 100 = complete control), Cocklebur","cocklebur; 62 g ai/ha, preemergence",0
same,"Plant response rating, Cocklebur",cocklebur; [16],5
same,"Plant response rating, Cocklebur","cocklebur; 250 g ai/ha, scale 0 to 100 (0 no effect, 100 complete control), visual, 12 to 14 days, preemergence",10
same,"Plant response rating, Crabgrass, Large",large crabgrass [2]; [18],90
same,"Plant response rating, Crabgrass, Large",large crabgrass [2]; [19],50
same,"Crabgrass, Large plant response rating",large crabgrass [2]; [11],0
same,"Plant response rating, Crabgrass, Large",large crabgrass [2]; [20],60
CCNC(=O)c1ccc(F)c(NC(=O)C2CC(C(C)(C)C)=NN2CC)c1 (racemic) [Compound 269],"Plant response rating, Johnsongrass","johnsongrass; 62 g ai/ha, scale 0 to 100",40
same,"Plant response rating, Johnsongrass",johnsongrass; [3],60
same,"Plant response rating, Johnsongrass","johnsongrass; 250 g ai/ha, scale 0-100",100
same,"Plant response rating, Johnsongrass",johnsongrass; [4],100
same,Barnyardgrass plant response rating,barnyardgrass; [5],45
same,Barnyardgrass plant response rating,barnyardgrass; [6],65
same,Barnyardgrass plant response rating,barnyardgrass; [7],75
same,"Plant response rating, Barnyardgrass",barnyardgrass; [8],90
same,"Plant response rating, Morningglory","morningglory; 62 g ai/ha, scale 0 to 100",0
same,"Plant response rating, Morningglory",morningglory; [3],5
same,"Plant response rating, Morningglory","morningglory; 250 g ai/ha, scale 0-100",10
same,"Plant response rating, Morningglory",morningglory; [4],40
same,"Plant response rating, Nutsedge, Yellow","yellow nutsedge; 62 g ai/ha, scale 0 to 100",5
same,"Plant response rating, Nutsedge, Yellow",yellow nutsedge; [3],10
same,"Plant response rating, Nutsedge, Yellow","yellow nutsedge; 250 g ai/ha, scale 0-100",40
same,"Plant response rating, Nutsedge, Yellow",yellow nutsedge; [4],60
same,Surinam Grass plant response rating (0 to 100 scale),Surinam grass; [9],50
same,"Plant response rating, Surinam Grass",Surinam grass; [10],100
same,Surinam Grass plant response rating,Surinam grass; [11],10
same,Surinam Grass plant response rating,Surinam grass; [12],20
same,"Plant response rating, Crabgrass, Large","large crabgrass [1]; 62 g ai/ha, scale 0 to 100",95
same,"Plant response rating, Crabgrass, Large",large crabgrass [1]; [3],100
same,"Plant response rating, Crabgrass, Large","large crabgrass [1]; 250 g ai/ha, scale 0-100",100
same,"Plant response rating, Crabgrass, Large",large crabgrass [1]; [4],100
same,Rice plant response rating (0 to 100 scale),rice; [13],70
same,"Plant response rating, Rice",rice; [14],90
same,"Plant response rating, Nightshade","eastern black nightshade; 62 g ai/ha, scale 0 to 100",90
same,"Plant response rating, Nightshade",eastern black nightshade; [3],100
same,"Plant response rating, Nightshade","eastern black nightshade; 250 g ai/ha, scale 0-100",100
same,"Plant response rating, Nightshade",eastern black nightshade; [4],100
same,"Plant response rating, Cocklebur",cocklebur; [15],0
same,"Plant response rating, Cocklebur",cocklebur; [16],0
same,"Plant response rating, Cocklebur",cocklebur; [17],5
same,Cocklebur plant response rating,cocklebur,50
same,"Crabgrass, Large plant response rating (0 to 100 scale)",large crabgrass [2]; [9],100
same,"Plant response rating, Crabgrass, Large",large crabgrass [2]; [10],100
same,"Crabgrass, Large plant response rating",large crabgrass [2]; [11],10
same,"Crabgrass, Large plant response rating",large crabgrass [2]; [12],20

# Source: US20060069132A1, “Azolecarboxamide herbicides” (priority 2004, published 2006)
